Assay results reported in patent EP0490818B1, “6-CYCLOHEXYL-2'-0-METHYL-ADENOSINE HYDRATE AND USES THEREOF” (Novartis AG, priority 1990, dated 1992).
Where two headings read alike, the source gives them in different places.

Experiments:
[1] = target: T1, A2 receptor (Sus scrofa, UniProt K9IW67); test: Affinity for adenosine receptors, displacement of 3H-NECA binding in striatal membranes (A2); set-up: species or system Pig
T1 construct: Pig striatal membranes were prepared as previously described; from tissue; host or cells: pig striatum (membranes)
Description: (§1) Pig striatal membranes were prepared as previously described by H. Bruns et al. in Molecular Pharmacology 29 (1986) pages 331-344. ^3H-NECA, a non-selective adenosine receptor agonist was used to label both A1 and A2 receptors. IC50 values were derived from the displacement curves by weighted non-linear least-square curve fitting to the Langmuir equation and pKD values calculated.

[2] = test system: A1 receptor; conditions: ratio of A2 KD to A1 KD, pig striatal membranes
Description: as §1

[3] = target: T2, A1 receptor (Sus scrofa, UniProt I3LEN5); test: biochemical
T2 sequence (I3LEN5 1-326): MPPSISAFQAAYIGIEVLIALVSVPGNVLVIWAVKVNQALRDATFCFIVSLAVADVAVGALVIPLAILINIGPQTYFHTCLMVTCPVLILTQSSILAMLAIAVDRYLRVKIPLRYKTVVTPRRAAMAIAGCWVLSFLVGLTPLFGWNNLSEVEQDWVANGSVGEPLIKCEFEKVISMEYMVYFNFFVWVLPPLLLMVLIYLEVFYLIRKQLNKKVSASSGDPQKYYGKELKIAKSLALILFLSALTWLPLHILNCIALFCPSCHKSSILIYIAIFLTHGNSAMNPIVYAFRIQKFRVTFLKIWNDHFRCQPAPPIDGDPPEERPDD
Description: as §1

[4] = Plasma free fatty acids and triglycerides in the monkey (dyslipidemias with elevated serum triglycerides); assay type: in vivo; conditions: Rhesus monkey
From the text: Several studies have shown a positive correlation between serum triglyceride levels and the risk for coronary heart disease (CHD) (Grundy, in Cholesterol and Atherosclerosis: Diagnosis and Treatment, Lippincott, Philadelphia (1990)). The value of reducing elevated triglyceride levels as an approach to reducing the risk of CHD emerged from the Helsinki Heart Study where, following treatment with gemfibrozil, the greatest reduction in serious coronary events occured in Type IIB hyperlipidemic patients in whom both LDL-cholesterol and total serum triglycerides were elevated.

T1 sequence (K9IW67 1-409): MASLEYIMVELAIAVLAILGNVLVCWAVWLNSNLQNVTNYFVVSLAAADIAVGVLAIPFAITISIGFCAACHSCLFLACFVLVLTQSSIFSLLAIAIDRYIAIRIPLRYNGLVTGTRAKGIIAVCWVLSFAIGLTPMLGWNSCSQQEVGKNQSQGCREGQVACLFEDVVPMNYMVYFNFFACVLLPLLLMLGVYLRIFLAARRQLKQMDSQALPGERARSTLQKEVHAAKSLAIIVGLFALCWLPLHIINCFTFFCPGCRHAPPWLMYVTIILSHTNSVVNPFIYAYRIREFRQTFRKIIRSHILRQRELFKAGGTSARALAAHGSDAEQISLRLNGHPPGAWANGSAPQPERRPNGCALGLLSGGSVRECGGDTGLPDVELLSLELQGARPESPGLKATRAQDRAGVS

Structure (SMILES)	Kd ([1]; Pig striatal membranes, 3H-NECA label, mean ± spread, read-out: A2 (KD;nM)) [nM]	A1:A2 selectivity [2]	Kd [3] [µM]	Kd [1] [nM]	plasma free fatty acids [4]	plasma triglycerides [4]
Nc1nc(Nc2ccccc2)nc2c1ncn2[C@@H]1O[C@H](CO)[C@@H](O)[C@H]1O [CV 1808, 2-Phenylaminoadenosine, reference compound]	269 ± 70	0.1	2.46 ± 0.757	–	–	–
CCNC(=O)[C@H]1O[C@@H](n2cnc3c(N)nc(NCCc4ccc(CCC(=O)O)cc4)nc32)[C@H](O)[C@@H]1O [CGS 21680, 2-[p-(2-Carboxyethyl)phenethylamino]-5'-N-ethyl carboxamido-adenosine]	–	–	4.36 ± 1.08	–	–	–
CO[C@@H]1[C@H](O)[C@@H](CO)O[C@H]1n1cnc2c(NC3CCCCC3)ncnc21 [Compound No. 7 1.5 H2O, 6-cyclohexyl-2'-O-methyl-adenosine 1.5 hydrate]	–	1090	0.023 ± 0.002	24500 ± 5160	substantial and long-lasting falls	substantial and long-lasting falls
